The values below come from US5726177A, “Indole-derived arylpiperazines as ligands for 5HT1 -like, 5HT1B and 5HT1D receptors” (Pierre Fabre Medicament, priority 1993, dated 1998).

A word on the EC50: it is the concentration giving half of the maximal effect. In general, Ki refers to a dissociation constant, usually derived from enzyme kinetics or from competition with a known ligand. A word on the IC50: it is the concentration needed to halve the response being measured.

Structures can show the parent of a compound that is named as a salt. Where two headings read alike, the source gives them in different places.

The target of assay [1] is T1, 5-HT1B receptor (Didelphis virginiana, UniProt P35404).
T1 construct: mediated by a 5-HT1B receptor, in an OK kidney epithelial cell line; endogenous in cells; host or cells: OK kidney epithelial cell line
T1 sequence (P35404 whole entry): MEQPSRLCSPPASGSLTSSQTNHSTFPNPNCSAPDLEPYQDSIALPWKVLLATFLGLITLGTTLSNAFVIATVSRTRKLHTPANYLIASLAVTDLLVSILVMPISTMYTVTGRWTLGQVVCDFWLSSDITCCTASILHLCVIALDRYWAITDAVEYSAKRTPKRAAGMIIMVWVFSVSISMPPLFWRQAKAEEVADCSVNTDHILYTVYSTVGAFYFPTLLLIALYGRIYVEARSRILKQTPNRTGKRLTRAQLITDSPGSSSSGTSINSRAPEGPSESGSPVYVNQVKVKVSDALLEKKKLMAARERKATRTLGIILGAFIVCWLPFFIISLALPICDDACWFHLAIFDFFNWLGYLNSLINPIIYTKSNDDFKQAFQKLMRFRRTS
Kind of assay: Agonist activity: inhibition of forskolin-stimulated cAMP formation mediated by a 5-HT1B receptor in OK kidney epithelial cell line. The assay is classed as cell-based. As to the method: STUDY OF THE AGONIST ACTIVITY WITH RESPECT TO THE 5-HT1B RECEPTORS
The measurements were carried out with respect to the inhibition of the formation of cAMP stimulated by forskolin, mediated by a 5-HT1B receptor, in an OK kidney epithelial cell line as described elsewhere (P. J. Pauwels and C. Palmier, Neuropharmacology, awaiting publication).
(Changes in cAMP serve as a functional read-out for many G protein-coupled receptors.)

The target of assay [2] is human 5HT1Da receptor (Homo sapiens, UniProt P28221). Nature of the assay: Binding to cloned human 5HT1Da receptor. Conditions: human cloned receptor; [3H] ligand 2 nM; read-out: Ki 5HT1Da. As to the method:
(§1) Human 5HT1Da and 5HT1Db receptors were cloned according to the sequences published by M. Hamblin and M. Metcalf, Mol. Pharmacol., 40, 143 (1991) and Weinshenk et al., Proc. Natl. Acad. Sci., 89, 3630 (1992).
(§2) The transient transfection and the stable transfection of the genes of these receptors was carried out in Cos-7 and CHO-K1 cell lines by using an electroporator.
(§3) The binding of the derivatives of the present invention with human 5HT1Da, 5HT1Db and 5HT1A receptors was studied according to the method described by P. Pauwels and C. Palmier (Neuropharmacology, 33, 67, 1994).
(§4) The incubation media for these binding measurements comprise 0.4 ml of cell membrane preparation, 0.05 ml of a tritiated ligand [[3H]-SCT (final concentration: 2 nM) for the 5HT1Da and 5HT1Db receptors and [3H]-80H-DPAT (final concentration: 1 nM) for the 5HT1A receptor] and 0.05 ml of the molecule to be tested (final concentrations from 0.1 nM to 1000 nM) or 10 μM (final concentration) of serotonin (5HT1Da and 5HT1Db) or 1 μM (final concentration) of spiroxatrin (5HT1A ).

For assay [3], the target named is T2, human 5HT1Db receptor (Homo sapiens, UniProt P28222). Kind of assay: Binding to cloned human 5HT1Db receptor. Conditions: human cloned receptor; [3H] ligand 2 nM; read-out: Ki 5HT1Db. As to the method:
as §1, §2, §3, §4

Assay [4] concerns the target T2, human 5HT1Db receptor. Nature of the assay: cell-based. The settings on record: human 5HT1Db; CHO-K1 cells; read-out: EC50 (Inhibition of the 5HT1Db cyclase stimulated by forskolin). As to the method: as §1, §2
The inhibition of the formation of cyclic AMP (stimulated by forskolin) mediated by the human 5HT1Db receptor was studied in CHO-K1 cells transfected by the receptor according to the technique described previously for the 5HT1B receptor (P. Pauwels and C. Palmier, Neuropharmacology, 33, 67, 1994).

The test system of assay [5] is 5-HT1D receptors. Nature of the assay: Affinity for 5-HT1D receptors (3H-5HT binding, sheep caudate membranes). Conditions: for Ratio 1A/1D (ratio of the IC50 values for the 5HT1A and 5HT1D receptors): selectivity 5-HT1D over 5-HT1A; for IC50: sheep caudate nuclei membranes, 3H-5HT, 25° C., 30 min. As to the method: STUDY OF THE AFFINITY FOR 5-HT1D RECEPTORS
This study is carried out according to the technique described by Pauwells et al. (Biochem. Pharmacol, 46, 535-538, 1993).
Preparation of the membranes
Sheep brains are removed in the local abattoir and transported in ice. The caudate nuclei are removed, weighed and homogenized with a Polytron for 20 sec (speed 6-7) in 20 volumes of Tris-HCl 50 mM, pH 7.7. The homogenate is centrifuged for 10 min at 48,000 g with an L5 50E centrifuge (Beckman).
The pellet, taken up in 20 volumes of Tris-HCl 50 mm, pH 7.7, is placed in a water bath at 37° C. for 10 min and then recentrifuged for 10 min at 48,000 g. The pellet then obtained is immediately frozen in fractions containing 0.5g of tissue.
The pellet is defrosted and homogenized with a Dounce in 80 volumes of Tris-HCl 50 mM, pH 7.7, containing 4 mM CaCl2, 10 μM of pargyline and 0.1% of ascorbic acid.
Affinity is produced at 25° C. by incubating for 30 min:
0.1 ml of buffer or 10 μM, as final concentration, of sumatriptan, in order to obtain the non-specific binding
0.1 ml of 3H-5HT (15 to 30 Ci:mM, New England Nuclear France).
The incubation is brought to an end by rapid filtration through GF/B filters and rinsing with 3 times 3 [illegible] ice-cold buffer, using a harvester manufactured by Brandel which makes it possible [illegible] to filter [illegible]samples. The filters are introduced into vials containing [illegible]ml of [illegible] [illegible] scintillant (Packard) and the radioactivity measured with a Tri-carb 4640 counter (Packard). The IC50 (concentration which inhibits the specific affinity by 50%) is determined graphically.

Assay [6] has as its target T3, 5-HT1A (Rattus norvegicus, UniProt P19327).
T3 construct: from tissue; host or cells: rat frontal cortex (from the title of the cited method)
T3 sequence (P19327 1-422): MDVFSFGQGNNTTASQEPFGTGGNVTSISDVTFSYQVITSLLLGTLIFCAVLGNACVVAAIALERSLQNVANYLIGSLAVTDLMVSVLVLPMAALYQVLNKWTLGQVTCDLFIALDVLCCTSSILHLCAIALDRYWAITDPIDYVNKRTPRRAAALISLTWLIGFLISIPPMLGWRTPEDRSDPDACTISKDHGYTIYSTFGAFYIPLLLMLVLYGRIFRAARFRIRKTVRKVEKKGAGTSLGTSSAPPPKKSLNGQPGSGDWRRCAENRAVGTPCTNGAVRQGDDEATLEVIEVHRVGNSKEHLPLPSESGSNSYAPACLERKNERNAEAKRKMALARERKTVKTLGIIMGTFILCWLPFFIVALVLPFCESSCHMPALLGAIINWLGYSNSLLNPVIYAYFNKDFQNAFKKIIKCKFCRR
Nature of the assay: Affinity for 5-HT1A receptors (method of Peroutka). The format is binding. As to the method:
The affinities of the various products which form part of this invention for 5HT1A and 5HT1B receptors were measured according to the techniques described in:
Peroutka S. J. Pharmacological differentiation and characterization of 5HT1A, 5HT1B and 5HT1C binding sites in rat frontal cortex. J. Neurochem., 45, 529-540, 1986.

The mark [7] stands for this setting: rat frontal cortex (Peroutka method), read-out: IC50 5-HT1A mean.

T2 sequence (P28222 whole entry): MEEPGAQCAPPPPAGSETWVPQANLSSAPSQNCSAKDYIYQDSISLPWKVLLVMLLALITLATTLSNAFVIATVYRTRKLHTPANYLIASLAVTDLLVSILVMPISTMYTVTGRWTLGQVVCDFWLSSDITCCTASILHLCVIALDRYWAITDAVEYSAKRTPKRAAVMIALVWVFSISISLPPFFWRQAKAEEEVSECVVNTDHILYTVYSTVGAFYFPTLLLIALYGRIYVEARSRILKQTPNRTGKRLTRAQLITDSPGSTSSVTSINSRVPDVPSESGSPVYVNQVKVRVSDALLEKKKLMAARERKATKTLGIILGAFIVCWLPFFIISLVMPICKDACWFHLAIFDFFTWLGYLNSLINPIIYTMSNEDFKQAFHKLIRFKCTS
Chain of human 5HT1Da receptor (P28221 whole entry): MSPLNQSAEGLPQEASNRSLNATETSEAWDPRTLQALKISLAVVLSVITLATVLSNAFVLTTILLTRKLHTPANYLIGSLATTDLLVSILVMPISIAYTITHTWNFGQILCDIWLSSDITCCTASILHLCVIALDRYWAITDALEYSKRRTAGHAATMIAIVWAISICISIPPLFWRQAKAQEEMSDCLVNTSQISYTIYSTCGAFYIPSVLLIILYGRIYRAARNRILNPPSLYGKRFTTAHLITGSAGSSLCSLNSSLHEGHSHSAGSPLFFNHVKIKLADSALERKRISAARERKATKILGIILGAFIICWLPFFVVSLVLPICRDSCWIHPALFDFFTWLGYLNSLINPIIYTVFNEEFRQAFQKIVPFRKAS

On to `NCCc1c[nH]c2ccc(OCC(=O)N3CCN(c4ccc([N+](=O)[O-])cc4)CC3)cc12` [Example 1, 2-[3-(2-Aminoethyl)-1H-indol-5-yloxy]-1-[4-(4-nitrophenyl)piperazin-1-yl]ethanone hydrochloride], for which the EC50 in assay [1] is 0.3 to 1.2 nM; in assay [4], 1.2 nM. Also, the Ki in assay [2] was 0.5 nM; in assay [3], 1 nM.

As for `NCCc1c[nH]c2ccc(OCC(=O)N3CCN(c4ccc(N)cc4)CC3)cc12` [Example 2, 2-[3-(2-Aminoethyl)-1H-indol-5-yloxy]-1-[4-(4-aminophenyl)piperazin-1-yl]ethanone hydrochloride], the EC50 in assay [1] lay in the range of 0.3 to 1.2 nM.

For the molecule `CC(=O)Nc1ccc(N2CCN(C(=O)COc3ccc4[nH]cc(CCN)c4c3)CC2)cc1` [Example 3, N-[4-(4-{2-[3-(2-Aminoethyl)-1H-indol-5-yloxy]acetyl}piperazin-1-yl)phenyl]acetamide hydrochloride], the EC50 in assay [1] lay in the range of 0.3 to 1.2 nM.

For the molecule `NCCc1c[nH]c2ccc(OCC(=O)N3CCN(c4ccc(NC(=O)c5ccccc5)cc4)CC3)cc12` [Example 4, N-[4-(4-{2-[3-(2-Aminoethyl)-1H-indol-5-yloxy]acetyl}piperazin-1-yl)phenyl]benzamide hydrochloride], in assay [5], the “Ratio 1A/1D (ratio of the IC50 values for the 5HT1A and 5HT1D receptors)” value (from here on “Ratio 1A/1D”) came out at 75; the IC50 amounted to 1 nM. Besides, the IC50 in assay [6] (setting [7]) was found to be 75 nM.

Take `CS(=O)(=O)Nc1ccc(N2CCN(C(=O)COc3ccc4[nH]cc(CCN)c4c3)CC2)cc1` [Example 5, N-[4-(4-{2-[3-(2-Aminoethyl)-1H-indol-5-yloxy]acetyl}piperazin-1-yl)phenyl]methanesulfonamide hydrochloride]: the Ki turned out to be 0.7 nM in assay [2] and 3.2 nM in assay [3]. The EC50 in assay [4] was 6.5 nM.

For the molecule `CS(=O)(=O)N(c1ccc(N2CCN(C(=O)COc3ccc4[nH]cc(CCN)c4c3)CC2)cc1)S(C)(=O)=O` [Example 6, N-[4-(4-{2-[3-(2-Aminoethyl)-1H-indol-5-yloxy]acetyl}piperazin-1-yl)phenyl](methanesulfonyl)methanesulfonamide hydrochloride], the “Ratio 1A/1D” value in assay [5] worked out at 18. Moreover, the IC50 was 4.3 nM in assay [5] and 79 nM in assay [6] (setting [7]).

As to `CCS(=O)(=O)Nc1ccc(N2CCN(C(=O)COc3ccc4[nH]cc(CCN)c4c3)CC2)cc1` [Example 7, N-[4-(4-{2-[3-(2-Aminoethyl)-1H-indol-5-yloxy]acetyl}piperazin-1-yl)phenyl]ethanesulfonamide hydrochloride], in assay [5], the “Ratio 1A/1D” value was determined as 28; the IC50 amounted to 1.6 nM. Besides, the IC50 in assay [6] (setting [7]) came to 44 nM.

With `NCCc1c[nH]c2ccc(OCC(=O)N3CCN(c4ccc(NS(=O)(=O)c5cccs5)cc4)CC3)cc12` [Example 8, Thiophene-2-{N-[4-(4-{2-[3-(2-aminoethyl)-1H-indol-5-yloxy]acetyl}piperazin-1-yl)phenyl]sulfonamide hydrochloride], the “Ratio 1A/1D” value in assay [5] is on record as 22. The IC50 came out at 1.2 nM in assay [5] and 26 nM in assay [6] (setting [7]).

With `NCCc1c[nH]c2ccc(OCC(=O)N3CCN(c4ccc(N(S(=O)(=O)c5cccs5)S(=O)(=O)c5cccs5)cc4)CC3)cc12` [Example 9, N-[4-(4-{2-[3-(2-Aminoethyl)-1H-indol-5-yl-oxy]acetyl}piperazin-1-yl)phenyl](thiophene-2-sulfonyl)-thiophene-2-sulfonamide hydrochloride], the IC50 in assay [6] (setting [7]) came out at 38 nM.

For the molecule `Cc1noc(C)c1S(=O)(=O)Nc1ccc(N2CCN(C(=O)COc3ccc4[nH]cc(CCN)c4c3)CC2)cc1` [Example 10, 3,5-Dimethylisoxazole-4-{N-[4-(4-{2-[3-(2-aminoethyl)-1H-indol-5-yloxy]acetyl}-piperazin-1-yl)phenyl]sulfonamide hydrochloride], in assay [5], the “Ratio 1A/1D” value is 20; the IC50 came to 1 nM. Further, in assay [6] (setting [7]), the IC50 was determined as 20 nM.

Take `CCOC(=O)Nc1ccc(N2CCN(C(=O)COc3ccc4[nH]cc(CCN)c4c3)CC2)cc1` [Example 11, 2-[3-(2-Aminoethyl)-1H-indol-5-yloxy]-1-[4-(4-N-{ethoxycarbonyl}aminophenyl)piperazin-1-yl]-ethanone hydrochloride]: in assay [5], the “Ratio 1A/1D” value is listed as 44. The figures for the IC50 in assay [5] and in assay [6] (setting [7]) were 2.4 nM and 105 nM, respectively.

With `NCCc1c[nH]c2ccc(OCC(=O)N3CCN(c4ccccc4[N+](=O)[O-])CC3)cc12` [Example 14, 2-[3-(2-Aminoethyl)-1H-indol-5-yloxy]-1-[4-(2-nitrophenyl)piperazin-1-yl)ethanone hydrochloride], in assay [5], the “Ratio 1A/1D” value is 10; the IC50 was determined as 1 nM. In assay [6], it took 9.5 nM to reach half-maximal inhibition (IC50).

Regarding `CS(=O)(=O)Nc1ccc(N2CCN(C(=O)CCCCCOc3ccc4[nH]cc(CCN)c4c3)CC2)cc1` [Example 59, N-[4-(4-{6-[3-(2-Aminoethyl)-1H-indol-5-yloxy]hexanoyl}piperazin-1-yl)phenyl]methane sulfonamide hydrochloride], the Ki in assay [2] and in assay [3] was 1.3 nM in each case. Besides, in assay [4], the EC50 was 0.52 nM.

As to `NCCc1c[nH]c2ccc(O)cc12` [serotonin, reference compound], the “blocking the formation of cAMP (in words)” value in assay [1] (OK kidney epithelial cell line, forskolin-stimulated) is recorded as “capable of effectively blocking the formation of cAMP”.
